≈ marks a conversion by molar mass, not a printed value. Where “and” joins values, the source holds several entries; their conditions need not be identical. Equal values may be shown once. Read-outs that look alike come from different tables or passages of the source.
Legend:
wild-type (WT) BlaC [1] = molecular target: T1, wild-type (WT) BlaC (Mycobacterium tuberculosis, UniProt P9WKD3); parameters: method as in Radojković, Chikunova, et al., [2025]; details: 100 mM NaPi, pH 6.4, 25°C, ref Radojković, Chikunova, et al., [2025]; cited from earlier work
T1 construct: 6xHis tag with TEV cleavage site (N); made in house; host or cells: E. coli BL21 (DE3) pLysS
T1 sequence (P9WKD3 35-307): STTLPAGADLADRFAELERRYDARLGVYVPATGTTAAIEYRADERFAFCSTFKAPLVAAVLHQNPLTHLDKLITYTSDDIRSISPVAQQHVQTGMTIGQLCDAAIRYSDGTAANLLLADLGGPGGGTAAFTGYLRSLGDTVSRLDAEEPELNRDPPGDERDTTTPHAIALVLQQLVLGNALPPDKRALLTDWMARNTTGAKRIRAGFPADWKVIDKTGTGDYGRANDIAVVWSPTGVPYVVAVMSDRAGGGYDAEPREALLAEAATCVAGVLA

wild-type (WT) BlaC [2] = molecular target: T1, wild-type (WT) BlaC; assay type: biochemical; details: pH 6.4
[3] = system: E. coli KA797 cells producing BlaC G132N; assay type: cell-based
[4] = system: E. coli KA797 cells producing BlaC I105G; assay type: cell-based
[5] = system: E. coli KA797 cells producing BlaC I105Y; assay type: cell-based
[6] = system: E. coli KA797 cells producing BlaC S130G; assay type: cell-based
[7] = system: E. coli KA797 cells producing wild-type BlaC; assay: Minimum inhibitory concentration determination; assay type: cell-based; details: Escherichia coli
Description: (§1) The MIC was determined for E. coli KA797 cells carrying various pUK21‐blaC plasmids with the lac promoter and tat‐signal peptide upstream of the blaC gene (Figure S7) (Radojković, van Ingen, et al., [2025]). Overnight cultures of E. coli were inoculated into fresh LB medium with 50 μg/mL kanamycin and incubated at 37°C until OD600 reached 2. […] The concentration of the selection antibiotic was increased in 2‐fold increments. The plate was incubated for 16 h at 37°C in a Bioscreen C Pro plate reader with continuous shaking, and the OD600 was recorded every 15 min. The MIC was defined as the concentration of the selection antibiotic at which no increase in OD600 was observed.

[8] = system: E. coli KA797 cells, pUK21 vector without blaC gene; assay: Minimum inhibitory concentration determination; assay type: cell-based; details: Escherichia coli, 16 h, 37°C, read-out: MIC carbenicillin
Description: as §1

[9] = system: E. coli KA797 cells producing BlaC I105Y-S130G; assay type: cell-based
[10] = system: E. coli KA797 cells producing BlaC I105G-G132N; assay type: cell-based
wild-type BlaC = molecular target: T2, wild-type BlaC (Mycobacterium tuberculosis, UniProt P9WKD3); assay type: biochemical
T2 construct: 6xHis tag with TEV cleavage site (N); made in house; host or cells: E. coli BL21 (DE3) pLysS
T2 sequence (P9WKD3 35-307): T1 sequence (P9WKD3 35-307)

[11] = in combination with carbenicillin at 50 μg/mL

Question: Which results are given for `CC1(C)S[C@@H]2[C@H](NC(=O)[C@H](N)c3ccccc3)C(=O)N2[C@H]1C(=O)O` [Ampicillin, ampicillin]?
Answer: K M ^app (wild-type (WT) BlaC [1]): 68 ± 3 µM; k cat (wild-type (WT) BlaC [1]): 14 ± 2 s⁻¹; k cat/K M ^app (wild-type (WT) BlaC [1]): 0.21 ± 0.01 μM^−1 s^−1 and 0.21 ± 0.01 ^a μM^−1 s^−1; KMapp (wild-type (WT) BlaC [2]): 46 ± 12 µM; k cat /K M ^app relative to the wild-type (wild-type (WT) BlaC [2]): 1; kcat (wild-type (WT) BlaC [2]): 9 ± 1 s⁻¹; kcat/KMapp (wild-type (WT) BlaC [2]): 210000 ± 10000 M⁻¹ s⁻¹; kcat/KMapp relative to the wild-type (wild-type (WT) BlaC [2]): 1

Question: What does the source list for `O=C(Cc1cccs1)N[C@@H]1C(=O)N2C(C(=O)O)=C(/C=C/c3ccc([N+](=O)[O-])cc3[N+](=O)[O-])CS[C@H]12` [Nitrocefin, nitrocefin]?
Answer: K M ^app (wild-type (WT) BlaC [2]): 180 ± 70 µM; k cat (wild-type (WT) BlaC [2]): 90 ± 20 s⁻¹; k cat /K M ^app relative to the wild-type (wild-type (WT) BlaC [2]): 1; k cat/K M ^app (wild-type (WT) BlaC [2]): 0.5 ± 0.2 ^a μM^−1 s^−1

Question: With `CC1(C)S[C@@H]2[C@H](NC(=O)C(C(=O)O)c3ccccc3)C(=O)N2[C@H]1C(=O)O` (stereo partly shown) [Carbenicillin, carbenicillin] as the compound, how does the “MIC times lower than the wild-type” value [3] read?
Answer: 2 times

Question: And the MIC carbenicillin ([3]; 16 h, 37°C)?
Answer: 400 µg/mL (≈ 1060 µM)

Question: And the MIC carbenicillin ([4]; 16 h, 37°C)?
Answer: 800 µg/mL (≈ 2110 µM)

Question: What about the “K M ^app” value (wild-type (WT) BlaC [1]) of the same compound?
Answer: 5.5 ± 0.7 µM

Question: What about the k cat (wild-type (WT) BlaC [1]) of the same compound?
Answer: 0.51 ± 0.02 s⁻¹

Question: And the “k cat/K M ^app” value (wild-type (WT) BlaC [1])?
Answer: 0.09 ± 0.01 ^a μM^−1 s^−1

Question: And the MIC carbenicillin ([5]; 16 h, 37°C)?
Answer: 6400 µg/mL (≈ 16900 µM)

Question: And the MIC carbenicillin ([6]; 16 h, 37°C)?
Answer: 100 µg/mL (≈ 264 µM)

Question: And the MIC ([7]; 16 h, 37°C, read-out: MIC carbenicillin)?
Answer: 800 µg/mL (≈ 2110 µM)

Question: What about the MIC [8] of the same compound?
Answer: 10 µg/mL (≈ 26.4 µM)

Question: And the “k cat /K M ^app relative to the wild-type” value (wild-type (WT) BlaC [2])?
Answer: 1

Question: What about the MIC carbenicillin ([9]; 16 h, 37°C) of the same compound?
Answer: 800 µg/mL (≈ 2110 µM)

Question: What about the MIC carbenicillin ([10]; 16 h, 37°C) of the same compound?
Answer: 800 µg/mL (≈ 2110 µM)

Question: Which MIC clavulanic acid [3, 11] does the source give for `O=C(O)[C@H]1/C(=C/CO)O[C@@H]2CC(=O)N21` [Clavulanic acid, clavulanic acid] here?
Answer: 1 µg/mL

Question: And the MIC clavulanic acid [4, 11]?
Answer: 4 µg/mL

Question: And the MIC clavulanic acid [5, 11]?
Answer: 2 µg/mL

Question: What about the MIC clavulanic acid [6, 11] of the same compound?
Answer: 4 µg/mL

Question: And the MIC ([7]; read-out: MIC clavulanic acid, in combination with carbenicillin at 50 μg/mL)?
Answer: 1 µg/mL

Question: And the MIC clavulanic acid [9, 11]?
Answer: 32 µg/mL

Question: What about the “incubation time after which the enzyme reaches its original activity again” value (wild-type BlaC) of the same compound?
Answer: 2 h

Question: What about the “time to full inhibition of the enzyme” value (wild-type BlaC) of the same compound?
Answer: < 5 min

Question: And the MIC clavulanic acid [10, 11]?
Answer: 16 µg/mL
